Results taken from patent US20110086759A1, “CHEMICAL COMPOUNDS” (SYNGENTA CROP PROTECTION, INC., priority 2007, published 2011).

How the values were obtained:
Format in all cases: in vivo
[1] = system: Ipomea hederaceae (IPOHE); assay: Post-emergence biological efficacy, glasshouse pot test; settings: Ipomoea hederacea, 312 h
How it was run: (§1)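 Plants were sown in standard soil and grown 8 days in a glasshouse (24/16° C. day/night, 14 hours light, 65% humidity), then sprayed post-emergence at 1000 or 250 g/ha from acetone/water (50:50) with 0.5% Tween 20. Damage was scored visually after 13 days (0 = none, 100 = total).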

Solanum nigrum (SOLNI) [2] = assay: as above; settings: 312 h
How it was run: as §1

[3] = system: Alopecurus myosuroides (ALOMY); assay: as above; settings: 312 h
How it was run: as §1

[4] = system: Amaranthus retoflexus (AMARE); assay: as above; settings: Amaranthus retroflexus, 312 h
How it was run: as §1

Setaria faberi (SETFA) [5] = assay: as above; settings: 312 h
How it was run: as §1

[6] = system: Echinochloa crus-galli (ECHCG); assay: as above; settings: 312 h
How it was run: as §1

[7] = system: Ipomea hederaceae (IPOHE); assay: Pre-emergence biological efficacy, glasshouse pot test; settings: Ipomoea hederacea, 312 h
How it was run: (§2)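 One day after seeds were sown in pots, compound was sprayed at 1000 or 250 g/ha. Plants were kept at 24/16 °C with 14 h light and 65% humidity and watered twice daily; damage was graded at day 13 (0 none, 100 total).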

Solanum nigrum (SOLNI) [8] = assay: as above; settings: 312 h
How it was run: as §2

[9] = system: Alopecurus myosuroides (ALOMY); assay: as above; settings: 312 h
How it was run: as §2

[10] = system: Amaranthus retoflexus (AMARE); assay: as above; settings: Amaranthus retroflexus, 312 h
How it was run: as §2

Setaria faberi (SETFA) [11] = assay: as above; settings: 312 h
How it was run: as §2

[12] = system: Echinochloa crus-galli (ECHCG); assay: as above; settings: 312 h
How it was run: as §2

[13] = post-emergence, 1,000 g/ha, evaluated after 13 days (100=total damage; 0=no damage), read-out: Percentage damage caused to weed species, IPOHE
[14] = post-emergence, 1,000 g/ha, evaluated after 13 days (100=total damage; 0=no damage), read-out: Percentage damage caused to weed species, SOLNI
[15] = post-emergence, 1,000 g/ha, evaluated after 13 days (100=total damage; 0=no damage), read-out: Percentage damage caused to weed species, ALOMY
[16] = post-emergence, 1,000 g/ha, evaluated after 13 days (100=total damage; 0=no damage), read-out: Percentage damage caused to weed species, AMARE
[17] = post-emergence, 1,000 g/ha, evaluated after 13 days (100=total damage; 0=no damage), read-out: Percentage damage caused to weed species, SETFA
[18] = post-emergence, 1,000 g/ha, evaluated after 13 days (100=total damage; 0=no damage), read-out: Percentage damage caused to weed species, ECHCG
[19] = pre-emergence, 1,000 g/ha, evaluated after 13 days (100=total damage; 0=no damage), read-out: Percentage damage IPOHE
[20] = pre-emergence, 1,000 g/ha, evaluated after 13 days (100=total damage; 0=no damage), read-out: Percentage damage SOLNI
[21] = pre-emergence, 1,000 g/ha, evaluated after 13 days (100=total damage; 0=no damage), read-out: Percentage damage ALOMY
[22] = pre-emergence, 1,000 g/ha, evaluated after 13 days (100=total damage; 0=no damage), read-out: Percentage damage AMARE
[23] = pre-emergence, 1,000 g/ha, evaluated after 13 days (100=total damage; 0=no damage), read-out: Percentage damage SETFA
[24] = pre-emergence, 1,000 g/ha, evaluated after 13 days (100=total damage; 0=no damage), read-out: Percentage damage ECHCG

Structure (SMILES)	pest or weed control at 1000 g/ha [1, 13] [%]	pest or weed control at 1000 g/ha (Solanum nigrum (SOLNI) [2]; [14]) [%]	pest or weed control at 1000 g/ha [3, 15] [%]	pest or weed control at 1000 g/ha [4, 16] [%]	pest or weed control at 1000 g/ha (Setaria faberi (SETFA) [5]; [17]) [%]	pest or weed control at 1000 g/ha [6, 18] [%]	pest or weed control at 1000 g/ha [7, 19] [%]	pest or weed control at 1000 g/ha (Solanum nigrum (SOLNI) [8]; [20]) [%]	pest or weed control at 1000 g/ha [9, 21] [%]	pest or weed control at 1000 g/ha [10, 22] [%]	pest or weed control at 1000 g/ha (Setaria faberi (SETFA) [11]; [23]) [%]	pest or weed control at 1000 g/ha [12, 24] [%]	further results
Cc1c(NCC2CC2)nc(C2CC2)nc1OCC(=O)NCC1CC1 [Compound 266-20, 2-cyclopropyl-4-cyclopropylmethylamino-6-cyclopropylmethylaminocarbonylmethoxy-5-methylpyrimidine]													pest or weed control at 1000 g/ha ([1]; Rate 1,000 g/ha, post-emergence spray, evaluated after 13 days (100=total damage to plant; 0=no damage to plant), read-out: Percentage damage caused to weed species, post-emergence, IPOHE): 70%; pest or weed control at 1000 g/ha (Solanum nigrum (SOLNI) [2]; Rate 1,000 g/ha, post-emergence spray, evaluated after 13 days (100=total damage to plant; 0=no damage to plant), read-out: Percentage damage caused to weed species, post-emergence, SOLNI): 80%; pest or weed control at 1000 g/ha ([3]; Rate 1,000 g/ha, post-emergence spray, evaluated after 13 days (100=total damage to plant; 0=no damage to plant), read-out: Percentage damage caused to weed species, post-emergence, ALOMY): 0%; pest or weed control at 1000 g/ha ([4]; Rate 1,000 g/ha, post-emergence spray, evaluated after 13 days (100=total damage to plant; 0=no damage to plant), read-out: Percentage damage caused to weed species, post-emergence, AMARE): 90%; pest or weed control at 1000 g/ha (Setaria faberi (SETFA) [5]; Rate 1,000 g/ha, post-emergence spray, evaluated after 13 days (100=total damage to plant; 0=no damage to plant), read-out: Percentage damage caused to weed species, post-emergence, SETFA): 0%; pest or weed control at 1000 g/ha ([6]; Rate 1,000 g/ha, post-emergence spray, evaluated after 13 days (100=total damage to plant; 0=no damage to plant), read-out: Percentage damage caused to weed species, post-emergence, ECHCG): 0%; pest or weed control at 1000 g/ha ([7]; pre-emergence, rate 1,000 g/ha, evaluated after 13 days (100=total damage to plant; 0=no damage), read-out: Percentage damage caused to weed species, IPOHE): 40%; pest or weed control at 1000 g/ha (Solanum nigrum (SOLNI) [8]; pre-emergence, rate 1,000 g/ha, evaluated after 13 days (100=total damage to plant; 0=no damage), read-out: Percentage damage caused to weed species, SOLNI): 50%; pest or weed control at 1000 g/ha ([9]; pre-emergence, rate 1,000 g/ha, evaluated after 13 days (100=total damage to plant; 0=no damage), read-out: Percentage damage caused to weed species, ALOMY): 0%; pest or weed control at 1000 g/ha ([10]; pre-emergence, rate 1,000 g/ha, evaluated after 13 days (100=total damage to plant; 0=no damage), read-out: Percentage damage caused to weed species, AMARE): 100%; pest or weed control at 1000 g/ha (Setaria faberi (SETFA) [11]; pre-emergence, rate 1,000 g/ha, evaluated after 13 days (100=total damage to plant; 0=no damage), read-out: Percentage damage caused to weed species, SETFA): 0%; pest or weed control at 1000 g/ha ([12]; pre-emergence, rate 1,000 g/ha, evaluated after 13 days (100=total damage to plant; 0=no damage), read-out: Percentage damage caused to weed species, ECHCG): 0%
COC(=O)c1nc(C2CC2)nc(NC2CCCC2)c1Cl [Compound 4-33, 5-Chloro-4-cyclopentylamino-2-cyclopropyl-6-methoxycarbonyl-pyrimidine]	70	70	30	80	70	60	50	20	0	50	10	20	
COC(=O)c1nc(C2CC2)nc(NC(C(=O)OC)c2ccccc2)c1Cl (stereo not drawn) [Compound 4-210, 5-Chloro-2-cyclopropyl-6-methoxycarbonyl-4-(1-methoxy-carbonyl-1-phenyl-methylamino)-pyrimidine]	40	40	60	50	80	60	100	90	20	100	20	50	
CCCCCc1ccc(C(C)Nc2nc(C3CC3)nc(C(=O)OC)c2Cl)cc1 (stereo not drawn) [Compound 4-178, 5-Chloro-2-cyclopropyl-6-methoxycarbonyl-4-[1-(4-n-pentyl-phenyl)ethylamino]-pyrimidine]	70	80	20	70	30	20	40	30	10	60	10	10	
